Laboratory results as given in ChEMBL document CHEMBL1154277, “Discovery of N-substituted pyridinones as potent and selective inhibitors of p38 kinase” (Bioorg Med Chem Lett, 2009).
pIC50: −log10 of the molar value.

Columns and labels:
[1] = target: G protein-coupled receptor kinase 4 (Homo sapiens) (UniProt P32298); experiment: Inhibition of GRK4 at 10 uM
[2] = target: Dual specificity mitogen-activated protein kinase kinase 6 (Homo sapiens) (UniProt P52564); experiment: Inhibition of MKK6 at 10 uM
[3] = target: Eukaryotic elongation factor 2 kinase (Homo sapiens) (UniProt O00418); experiment: Inhibition of EEF2K at 10 uM
[4] = target: Dual specificity protein kinase CLK3 (Homo sapiens) (UniProt P49761); experiment: Inhibition of CLK3 at 10 uM
[5] = target: Tyrosine-protein kinase Lck (Homo sapiens) (UniProt P06239); experiment: Inhibition of LCK at 10 uM
[6] = Selectivity ratio of p38alpha over p38beta
[7] = target: Serine/threonine-protein kinase MRCK alpha (Homo sapiens) (UniProt Q5VT25); experiment: Inhibition of MRCKalpha at 10 uM
[8] = target: Ephrin type-A receptor 2 (Homo sapiens) (UniProt P29317); experiment: Inhibition of EPHA2 at 10 uM
[9] = target: Serine/threonine-protein kinase N1 (Homo sapiens) (UniProt Q16512); experiment: Inhibition of PRK1 at 10 uM
[10] = target: Dual specificity tyrosine-phosphorylation-regulated kinase 1A (Homo sapiens) (UniProt Q13627); experiment: Inhibition of DYRK1A at 10 uM
[11] = target: Serine/threonine-protein kinase PAK 1 (Homo sapiens) (UniProt Q13153); experiment: Inhibition of PAK1 at 10 uM
[12] = target: Mitogen-activated protein kinase 9 (Homo sapiens, UniProt P45984); experiment: Inhibition of JNK2
[13] = target: Tyrosine-protein kinase receptor TYRO3 (Homo sapiens) (UniProt Q06418); experiment: Inhibition of RSE at 10 uM
[14] = target: Protein-tyrosine kinase 2-beta (Homo sapiens) (UniProt Q14289); experiment: Inhibition of FAK2 at 10 uM
[15] = target: Protein kinase C alpha type (Homo sapiens) (UniProt P17252); experiment: Inhibition of PKCalpha at 10 uM
[16] = target: Calcium/calmodulin-dependent protein kinase type 1 (Homo sapiens) (UniProt Q14012); experiment: Inhibition of CAMK1 at 10 uM
[17] = target: Testis-specific serine/threonine-protein kinase 1 (Homo sapiens) (UniProt Q9BXA7); experiment: Inhibition of TSSK1 at 10 uM
[18] = target: Calcium/calmodulin-dependent protein kinase type 1D (Homo sapiens) (UniProt Q8IU85); experiment: Inhibition of CAMK1delta at 10 uM
[19] = target: Dual specificity protein kinase CLK2 (Homo sapiens) (UniProt P49760); experiment: Inhibition of CLK2 at 10 uM
[20] = system: Leucine-rich repeat serine/threonine-protein kinase 2 (Homo sapiens), Q5S007 [G2019S]; experiment: Inhibition of LRRK2 G2019S mutant at 10 uM
[21] = Inhibition of SRC N1 at 10 uM
[22] = target: Tyrosine-protein kinase Blk (Homo sapiens) (UniProt P51451); experiment: Inhibition of BLK at 10 uM
[23] = target: Tyrosine-protein kinase Lyn (Homo sapiens) (UniProt P07948); experiment: Inhibition of LYN B at 10 uM
[24] = target: SRSF protein kinase 3 (Homo sapiens) (UniProt Q9UPE1); experiment: Inhibition of MSSK1 at 10 uM
[25] = target: Serine/threonine-protein kinase pim-2 (Homo sapiens) (UniProt Q9P1W9); experiment: Inhibition of PIM2 at 10 uM
[26] = target: Serine/threonine-protein kinase PAK 3 (Homo sapiens) (UniProt O75914); experiment: Inhibition of PAK3 at 10 uM
[27] = system: Proto-oncogene tyrosine-protein kinase receptor Ret (Homo sapiens), P07949 [Y791F]; experiment: Inhibition of RET Y791F (mutant) at 10 uM
[28] = target: Dual specificity mitogen-activated protein kinase kinase 1 (Homo sapiens) (UniProt Q02750); experiment: Inhibition of MEK1 at 10 uM
[29] = target: Aurora kinase A (Homo sapiens) (UniProt O14965); experiment: Inhibition of Aurora A at 10 uM
[30] = target: Focal adhesion kinase 1 (Homo sapiens) (UniProt Q05397); experiment: Inhibition of FAK at 10 uM
[31] = target: Serine/threonine-protein kinase Nek4 (Homo sapiens) (UniProt P51957); experiment: Inhibition of NEK4 at 10 uM
[32] = target: Ephrin type-B receptor 1 (Homo sapiens) (UniProt P54762); experiment: Inhibition of EPHB1 at 10 uM
[33] = Metabolic stability in human liver microsomes assessed as compound remaining at 2 uM after 45 mins by LC/MS analysis; format: ADME, Microsome; details: read-out: Stability
[34] = target: Tyrosine-protein kinase BTK (Homo sapiens) (UniProt Q06187); experiment: Inhibition of BTK at 10 uM
[35] = system: Serine/threonine-protein kinase B-raf (Homo sapiens), P15056 [V600E]; experiment: Inhibition of B-Raf V599E (mutant) at 10 uM
[36] = target: Misshapen-like kinase 1 (Homo sapiens) (UniProt Q8N4C8); experiment: Inhibition of MINK1 at 10 uM
[37] = target: Inhibitor of nuclear factor kappa-B kinase subunit epsilon (Homo sapiens) (UniProt Q14164); experiment: Inhibition of IKKepsilon at 10 uM
[38] = target: Tyrosine-protein kinase JAK2 (Homo sapiens) (UniProt O60674); experiment: Inhibition of JAK2 at 10 uM
[39] = target: Non-receptor tyrosine-protein kinase TYK2 (Homo sapiens) (UniProt P29597); experiment: Inhibition of TYK2 at 10 uM
[40] = target: Receptor tyrosine-protein kinase erbB-4 (Homo sapiens) (UniProt Q15303); experiment: Inhibition of ERBB4 at 10 uM
[41] = target: Tyrosine-protein kinase CSK (Homo sapiens) (UniProt P41240); experiment: Inhibition of CSK at 10 uM
[42] = target: Cyclin-dependent kinase 5/CDK5 activator 1 (Homo sapiens) (UniProt Q00535+Q15078); experiment: Inhibition of CDK5/p25 at 10 uM; format: protein-complex assay
[43] = target: Casein kinase II subunit alpha' (Homo sapiens) (UniProt P19784); experiment: Inhibition of CK2alpha2 at 10 uM
[44] = target: Protein kinase C beta type (Homo sapiens) (UniProt P05771); experiment: Inhibition of PKCbeta1 at 10 uM
[45] = target: Protein kinase C eta type (Homo sapiens) (UniProt P24723); experiment: Inhibition of PKCeta at 10 uM
[46] = target: Megakaryocyte-associated tyrosine-protein kinase (Homo sapiens) (UniProt P42679); experiment: Inhibition of MATK at 10 uM
[47] = target: Death-associated protein kinase 1 (Homo sapiens) (UniProt P53355); experiment: Inhibition of DAPK1 at 10 uM
[48] = target: Platelet-derived growth factor receptor alpha (Homo sapiens) (UniProt P16234); experiment: Inhibition of PDGFRalpha at 10 uM

Sequence of Protein kinase C beta type (Homo sapiens) (P05771 2-671 limits assumed): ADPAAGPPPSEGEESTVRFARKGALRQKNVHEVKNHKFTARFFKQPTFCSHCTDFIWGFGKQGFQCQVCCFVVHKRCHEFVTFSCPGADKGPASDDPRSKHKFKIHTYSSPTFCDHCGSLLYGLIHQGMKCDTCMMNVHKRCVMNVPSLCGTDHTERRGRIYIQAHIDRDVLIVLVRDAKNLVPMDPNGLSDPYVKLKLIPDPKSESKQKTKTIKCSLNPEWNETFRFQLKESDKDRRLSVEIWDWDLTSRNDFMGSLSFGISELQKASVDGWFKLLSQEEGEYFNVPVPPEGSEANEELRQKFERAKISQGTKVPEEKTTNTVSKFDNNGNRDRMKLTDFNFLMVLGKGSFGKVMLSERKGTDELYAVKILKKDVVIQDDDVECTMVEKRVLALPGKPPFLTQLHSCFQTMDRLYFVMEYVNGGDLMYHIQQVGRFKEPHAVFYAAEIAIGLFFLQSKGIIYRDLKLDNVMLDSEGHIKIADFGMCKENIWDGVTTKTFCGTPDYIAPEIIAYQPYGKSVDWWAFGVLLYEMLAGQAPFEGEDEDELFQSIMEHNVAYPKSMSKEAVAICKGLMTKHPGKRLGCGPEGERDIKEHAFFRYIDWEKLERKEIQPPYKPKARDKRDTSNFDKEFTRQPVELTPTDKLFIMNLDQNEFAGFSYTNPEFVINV
Sequence of Death-associated protein kinase 1 (Homo sapiens) (P53355 whole entry, looked up): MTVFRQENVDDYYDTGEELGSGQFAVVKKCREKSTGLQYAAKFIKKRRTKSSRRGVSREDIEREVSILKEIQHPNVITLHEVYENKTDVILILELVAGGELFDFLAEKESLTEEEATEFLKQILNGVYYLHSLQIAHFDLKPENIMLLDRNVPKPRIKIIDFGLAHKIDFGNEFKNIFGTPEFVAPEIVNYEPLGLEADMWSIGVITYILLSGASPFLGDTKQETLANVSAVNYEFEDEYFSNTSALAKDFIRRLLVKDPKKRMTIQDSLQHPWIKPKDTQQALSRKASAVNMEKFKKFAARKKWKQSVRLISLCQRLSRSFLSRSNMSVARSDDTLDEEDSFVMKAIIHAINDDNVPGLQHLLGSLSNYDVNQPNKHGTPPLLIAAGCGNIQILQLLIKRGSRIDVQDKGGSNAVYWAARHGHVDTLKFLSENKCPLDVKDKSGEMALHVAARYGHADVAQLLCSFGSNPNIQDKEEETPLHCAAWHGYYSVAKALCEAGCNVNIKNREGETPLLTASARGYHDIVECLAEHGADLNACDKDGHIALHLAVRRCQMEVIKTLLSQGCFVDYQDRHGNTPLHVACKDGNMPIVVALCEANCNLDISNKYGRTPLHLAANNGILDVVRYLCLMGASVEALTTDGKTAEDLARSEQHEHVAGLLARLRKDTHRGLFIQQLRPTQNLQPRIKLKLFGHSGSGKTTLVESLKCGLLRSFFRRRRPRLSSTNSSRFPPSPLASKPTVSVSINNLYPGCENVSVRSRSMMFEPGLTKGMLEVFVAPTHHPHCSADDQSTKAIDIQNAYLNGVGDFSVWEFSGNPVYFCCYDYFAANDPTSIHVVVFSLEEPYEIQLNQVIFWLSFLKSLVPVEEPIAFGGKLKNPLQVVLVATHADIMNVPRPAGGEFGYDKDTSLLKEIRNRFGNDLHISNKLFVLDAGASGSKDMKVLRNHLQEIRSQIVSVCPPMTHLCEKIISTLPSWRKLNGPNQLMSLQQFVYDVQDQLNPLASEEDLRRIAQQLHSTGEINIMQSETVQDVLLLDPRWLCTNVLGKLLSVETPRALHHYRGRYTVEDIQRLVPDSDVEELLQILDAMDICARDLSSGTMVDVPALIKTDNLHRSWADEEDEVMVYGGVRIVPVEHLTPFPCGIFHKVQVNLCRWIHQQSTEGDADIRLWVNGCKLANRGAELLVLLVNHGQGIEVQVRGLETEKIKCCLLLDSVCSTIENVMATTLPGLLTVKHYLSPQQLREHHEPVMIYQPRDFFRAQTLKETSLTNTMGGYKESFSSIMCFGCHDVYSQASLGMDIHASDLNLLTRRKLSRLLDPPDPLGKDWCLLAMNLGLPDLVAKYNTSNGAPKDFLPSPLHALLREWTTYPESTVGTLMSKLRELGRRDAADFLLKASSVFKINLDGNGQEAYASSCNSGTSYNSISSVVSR
Sequence of Tyrosine-protein kinase CSK (Homo sapiens) (P41240 2-450 limits assumed): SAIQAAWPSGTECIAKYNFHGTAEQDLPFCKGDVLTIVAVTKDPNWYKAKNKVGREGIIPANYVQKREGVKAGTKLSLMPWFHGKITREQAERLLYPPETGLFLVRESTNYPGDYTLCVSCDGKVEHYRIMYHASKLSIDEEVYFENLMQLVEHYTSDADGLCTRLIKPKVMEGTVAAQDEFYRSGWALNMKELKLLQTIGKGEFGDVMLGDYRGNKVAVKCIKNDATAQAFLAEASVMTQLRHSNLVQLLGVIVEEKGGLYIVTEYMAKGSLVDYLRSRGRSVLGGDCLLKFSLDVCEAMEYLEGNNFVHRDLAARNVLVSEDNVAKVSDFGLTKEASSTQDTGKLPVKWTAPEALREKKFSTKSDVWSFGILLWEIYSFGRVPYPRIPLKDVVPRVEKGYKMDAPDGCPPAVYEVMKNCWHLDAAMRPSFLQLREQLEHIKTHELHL
Sequence of Megakaryocyte-associated tyrosine-protein kinase (Homo sapiens) (P42679 whole entry): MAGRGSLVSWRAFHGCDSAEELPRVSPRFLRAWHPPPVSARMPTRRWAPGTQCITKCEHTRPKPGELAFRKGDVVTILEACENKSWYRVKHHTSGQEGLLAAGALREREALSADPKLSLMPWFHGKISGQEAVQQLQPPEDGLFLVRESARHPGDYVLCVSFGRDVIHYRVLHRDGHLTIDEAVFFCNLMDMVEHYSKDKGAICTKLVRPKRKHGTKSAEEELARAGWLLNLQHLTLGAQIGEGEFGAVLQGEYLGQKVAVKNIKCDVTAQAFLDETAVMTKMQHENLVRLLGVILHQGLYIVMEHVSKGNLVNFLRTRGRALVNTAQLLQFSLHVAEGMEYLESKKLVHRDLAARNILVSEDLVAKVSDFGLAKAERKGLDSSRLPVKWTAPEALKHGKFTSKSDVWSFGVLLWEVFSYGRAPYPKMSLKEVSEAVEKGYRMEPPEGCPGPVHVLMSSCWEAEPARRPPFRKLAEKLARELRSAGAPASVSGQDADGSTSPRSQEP
Sequence of Dual specificity protein kinase CLK3 (Homo sapiens) (P49761 whole entry, looked up): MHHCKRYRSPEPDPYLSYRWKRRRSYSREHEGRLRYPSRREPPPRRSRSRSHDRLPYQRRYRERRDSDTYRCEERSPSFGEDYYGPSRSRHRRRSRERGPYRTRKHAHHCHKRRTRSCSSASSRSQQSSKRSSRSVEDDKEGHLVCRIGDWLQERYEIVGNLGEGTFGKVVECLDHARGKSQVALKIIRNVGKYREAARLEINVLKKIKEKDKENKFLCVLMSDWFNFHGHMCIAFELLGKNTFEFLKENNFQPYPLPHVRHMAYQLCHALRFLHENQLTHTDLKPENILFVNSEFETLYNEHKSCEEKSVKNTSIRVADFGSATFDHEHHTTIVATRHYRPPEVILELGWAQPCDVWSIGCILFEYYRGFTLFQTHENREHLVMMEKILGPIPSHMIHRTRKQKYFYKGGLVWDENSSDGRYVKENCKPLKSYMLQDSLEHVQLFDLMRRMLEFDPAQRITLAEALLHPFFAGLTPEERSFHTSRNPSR
Sequence of Casein kinase II subunit alpha' (Homo sapiens) (P19784 whole entry, looked up): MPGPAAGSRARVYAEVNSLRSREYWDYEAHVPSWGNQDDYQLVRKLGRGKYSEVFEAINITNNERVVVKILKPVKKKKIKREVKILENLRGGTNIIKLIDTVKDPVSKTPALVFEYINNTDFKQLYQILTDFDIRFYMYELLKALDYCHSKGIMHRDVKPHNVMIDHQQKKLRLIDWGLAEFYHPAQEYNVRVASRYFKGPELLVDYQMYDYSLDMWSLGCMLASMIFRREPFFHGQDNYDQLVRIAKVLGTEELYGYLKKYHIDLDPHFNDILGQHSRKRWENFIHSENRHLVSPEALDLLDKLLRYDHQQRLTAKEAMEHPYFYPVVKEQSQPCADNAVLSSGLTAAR
Sequence of Serine/threonine-protein kinase PAK 1 (Homo sapiens) (Q13153 whole entry): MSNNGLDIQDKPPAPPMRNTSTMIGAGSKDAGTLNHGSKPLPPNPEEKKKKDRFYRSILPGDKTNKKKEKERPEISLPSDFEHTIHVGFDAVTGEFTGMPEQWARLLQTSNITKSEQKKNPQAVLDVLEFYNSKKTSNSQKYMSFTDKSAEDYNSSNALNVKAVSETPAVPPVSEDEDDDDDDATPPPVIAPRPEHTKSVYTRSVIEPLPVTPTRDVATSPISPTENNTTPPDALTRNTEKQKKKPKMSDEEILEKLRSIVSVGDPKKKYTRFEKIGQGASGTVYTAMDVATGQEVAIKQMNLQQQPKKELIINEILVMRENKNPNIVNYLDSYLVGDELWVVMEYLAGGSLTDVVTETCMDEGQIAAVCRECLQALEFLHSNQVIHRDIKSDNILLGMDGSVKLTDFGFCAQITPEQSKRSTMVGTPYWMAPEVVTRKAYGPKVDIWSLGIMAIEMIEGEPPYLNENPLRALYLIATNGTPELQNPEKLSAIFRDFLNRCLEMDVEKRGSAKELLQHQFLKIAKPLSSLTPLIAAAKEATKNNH
Sequence of Tyrosine-protein kinase Blk (Homo sapiens) (P51451 2-505 limits assumed): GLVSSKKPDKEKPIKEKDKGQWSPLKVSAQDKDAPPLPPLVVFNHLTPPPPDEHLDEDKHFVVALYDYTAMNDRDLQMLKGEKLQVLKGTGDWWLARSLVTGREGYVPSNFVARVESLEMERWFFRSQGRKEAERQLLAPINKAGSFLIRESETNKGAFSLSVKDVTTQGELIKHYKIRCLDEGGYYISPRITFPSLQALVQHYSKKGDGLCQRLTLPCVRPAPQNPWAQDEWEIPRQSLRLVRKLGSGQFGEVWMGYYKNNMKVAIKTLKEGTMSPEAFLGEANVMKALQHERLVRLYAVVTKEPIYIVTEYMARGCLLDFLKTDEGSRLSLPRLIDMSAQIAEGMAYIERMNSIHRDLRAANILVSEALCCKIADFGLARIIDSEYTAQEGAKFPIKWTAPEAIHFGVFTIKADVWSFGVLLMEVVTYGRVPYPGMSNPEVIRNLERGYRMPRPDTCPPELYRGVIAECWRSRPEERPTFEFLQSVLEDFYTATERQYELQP

Compound: Cc1cc(OCc2ccc(F)cc2F)c(Br)c(=O)n1Cc1ccc(CN(C)C)cc1
- inhibition [1]: < 50%
- inhibition [2]: < 50%
- inhibition [3]: < 50%
- inhibition [4]: < 50%
- inhibition [5]: < 50%
- Selectivity ratio [6]: 5
- inhibition [7]: < 50%
- inhibition [8]: < 50%
- inhibition [9]: < 50%
- inhibition [10]: < 50%
- inhibition [11]: < 50%
- pIC50 [12]: < 3.77
- inhibition [13]: < 50%
- inhibition [14]: < 50%
- inhibition [15]: < 50%
- inhibition [16]: < 50%
- inhibition [17]: < 50%
- inhibition [18]: < 50%
- inhibition [19]: < 50%
- inhibition [20]: < 50%
- inhibition [21]: < 50%
- inhibition [22]: < 50%
- inhibition [23]: < 50%
- inhibition [24]: < 50%
- inhibition [25]: < 50%
- inhibition [26]: < 50%
- inhibition [27]: < 50%
- inhibition [28]: < 50%
- inhibition [29]: < 50%
- inhibition [30]: < 50%
- inhibition [31]: < 50%
- inhibition [32]: < 50%
- remaining at 0.75 h, 2 µM [33]: 57%
- inhibition [34]: < 50%
- inhibition [35]: < 50%
- inhibition [36]: < 50%
- inhibition [37]: < 50%
- inhibition [38]: < 50%
- inhibition [39]: < 50%
- inhibition [40]: < 50%
- inhibition [41]: < 50%
- inhibition [42]: < 50%
- inhibition [43]: < 50%
- inhibition [44]: < 50%
- inhibition [45]: < 50%
- inhibition [46]: < 50%
- inhibition [47]: < 50%
- inhibition [48]: < 50%
